The target of test [1] is T1, Substance-K receptor (Cavia porcellus) (UniProt Q64077).
T1 sequence (whole entry): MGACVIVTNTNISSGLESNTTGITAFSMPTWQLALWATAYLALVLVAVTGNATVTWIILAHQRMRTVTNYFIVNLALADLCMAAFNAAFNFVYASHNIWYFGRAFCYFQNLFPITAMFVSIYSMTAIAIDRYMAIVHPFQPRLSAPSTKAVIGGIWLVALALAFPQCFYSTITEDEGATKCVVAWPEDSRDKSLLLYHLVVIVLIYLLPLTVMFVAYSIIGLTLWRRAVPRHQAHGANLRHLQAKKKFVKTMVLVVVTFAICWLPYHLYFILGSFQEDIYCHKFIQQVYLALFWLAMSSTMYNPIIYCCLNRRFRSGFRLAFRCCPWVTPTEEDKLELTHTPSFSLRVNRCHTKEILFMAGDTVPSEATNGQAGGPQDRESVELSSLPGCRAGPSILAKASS
Kind of test: Antagonist Activity of compound (100 nM) at Tachykinin receptor 2 at guinea pig trachea in the presence of P-Ala8-NKA[4-IO] as agonist. The format is functional.

Test [2] concerns the target T1, Substance-K receptor (Cavia porcellus). Description: Antagonist Activity of compound (10 nM) at Tachykinin receptor 2 at guinea pig trachea in the presence of P-Ala8-NKA[4-IO] as agonist. The format is functional.
Another test addresses T2, Substance-K receptor (Cavia porcellus, UniProt Q64077).
T2 sequence (Q64077 whole entry): T1 sequence (whole entry)
Kind of test: Compound was evaluated for antagonistic activity towards Tachykinin receptor 2 at guinea pig trachea. The test is classed as functional, tissue-based. The settings on record: read-out: pA2 (converted).

For test [3], the target named is T1, Substance-K receptor (Cavia porcellus). Kind of test: Antagonist Activity of compound (30 nM) at Tachykinin receptor 2 at guinea pig trachea in the presence of P-Ala8-NKA[4-IO] as agonist. The format is functional.

This is an account of results in ChEMBL document CHEMBL1130872, “Neuronorm is a potent and water soluble neurokinin A receptor antagonist” (Bioorg Med Chem Lett, 1998).

The Emax is the maximal effect, on the per cent scale that the assay sets. `CSCC[C@@H]1NC(=O)C(CC(C)C)NC(=O)C2CNC(=O)C[C@H](NC1=O)C(=O)N[C@@H](Cc1c[nH]c3ccccc13)C(=O)NC(Cc1ccccc1)C(=O)N2` (single isomer, unassigned): the values for the maximum response (Emax) in test [1], in test [2] and in test [3] were 98%, 93% and 90%, respectively. Besides, the Kb at Substance-K receptor is 23.4 nM.
